This note sets out measurements from patent US7687476B2, “Specific inhibitors of acute and chronic inflammation” (priority 2001, dated 2010).

Experiment [1] concerns L-cells transfected with E-selectin. Kind of experiment: static adhesion of neutrophils to L-cells transfected with E-selectin (myeloperoxidase readout). It counts as cell-based, human. To be noted: for adhesion of neutrophils to E-selectin transfected L-cells: preincubation 45 min, adhesion 20 min at 37° C., static assay; for order of potency of lead compounds: proposed from the adhesion experiments. On the procedure:
L-cells permanently transfected with full-length E-selectin by electroporation. Human neutrophils were isolated from EDTA whole blood by density centrifugation. Purity and total number were determined by standard haematology instruments, L-cells were grown in 96-well microtiter plates.
L-cells and neutrophils were pre-incubated with respective substances for 45 min at 37° C. Neutrophils were then allowed to adhere to L-cells in the presence of different substances for 20 min at 37° C. Non-adherent cells were removed by repeated washings and the number of adherent cells determined by measuring myeloperoxidase content. Since binding of neutrophils to selectin is calcium dependent, EGTA (which chelates calcium) was used as a negative control.
L-cells and neutrophils were preincubated with decreasing concentrations of maltose, fucose, and thymidine (1 mM, 10 μM, 0.1 μM, and 1 nM) for 45 min at 37° C. Neutrophils were then allowed to adhere to L-cells in the presence of respective substances for 20 min at 37° C. Non-adherent cells were removed by repeated washings and the number of adherent cells determined by measuring myeloperoxidase content.
L-cells were grown in 96-well microtiter plates. L-cells and neutrophils were preincubated with decreasing concentrations of EGTA (10 mM, 1 mM, 0.1 mM, 10 μM) for 45 min at 37° C. Neutrophils were then allowed to adhere to L-cells in the presence of EGTA for 20 min at 37° C. Non-adherent cells were removed by repeated washings and the number of adherent cells was determined by measuring myeloperoxidase content.

Experiment [2] deals with T1, myeloperoxidase (Homo sapiens, UniProt P05164).
T1 construct: endogenous in cells; host or cells: human neutrophils isolated from EDTA whole blood
Kind of experiment: effect on neutrophil myeloperoxidase activity. It counts as cell-based. As to conditions: neutrophils, 100 μM to 10 nM, 2 hours at 37° C. On the procedure:
Since the number of adherent neutrophils are calculated by measuring neutrophil myeloperoxidase activity, it could be argued that these substances could have a direct effect on myeloperoxidase activity and thus create a methodological artifact. Neutrophils were incubated with different concentrations of uridine, isomaltitol, and 4-thiouridine (100 μM, 10 μM, 1 μM, 100 nM, 10 nM) for 2 hours at 37° C.

The subject of experiment [3] is TNF stimulated HUVEC. In words: neutrophil adhesion to TNF stimulated HUVEC. It counts as cell-based, human. As to conditions: for adhesion of neutrophils to TNF stimulated / activated HUVEC (in words) / inhibition of adhesion of neutrophils to TNF stimulated HUVEC: HUVEC stimulated with TNF 4 h; for inhibition of adhesion of neutrophils to TNF stimulated HUVEC: neutrophils preincubated 30 min at 37° C. On the procedure: To further extend the finding from L-cells the binding of neutrophils to TNF activated endothelium (HUVEC) was studied.
Endothelial cells were grown in 96-well microtiter plates to confluence. They were stimulated with TNF for 4 h at 37° C. Isolated neutrophils were incubated for 30 min at 37° C. with respective substances. The endothelial cells were washed after 4 h and 2×10^5 neutrophils were added to each well and the cells were allowed to adhere in the presence of the respective substances.

The test system of experiment [4] is E-selectin. In words: cell-ELISA of surface expression of E-selectin on stimulated endothelial cells. It counts as cell-based, human. To be noted: simultaneous incubation of endothelium with different concentrations, 4 h at 37° C. The protocol:
The substances mentioned above should block the interaction of E-selectin with it's ligand and should not have any effect on cytokine induced up-regulation of adhesion molecules. A cell-ELISA was performed to assess the surface expression of adhesion molecules. Endothelial cells were grown in microtiter plates, stimulated with TNF or IL-1 with or without respective substances for 4 h at 37° C. After stimulation the cells were washed and fixed with formaldehyde. A cell-ELISA was performed in analogy to regular ELISA using primary and secondary antibodies.

The subject of experiment [5] is Colo 201 cells / L-cells transfected with E-selectin. Kind of experiment: adhesion of colon cancer cells Colo 201 to L-cells transfected with E-selectin. As to conditions: E-selectin transfected L-cells (text of b26 says HUVEC). It counts as cell-based. The protocol: Although protein ligands have been characterised for the selectins, they recognise a number of carbohydrate and non-carbohydrate ligands. The hypothesis is that these compounds should block E-selectin-SLe^x interaction. To confirm this it was also tested if these substances can block adhesion of Colo 201 cells to L-cells.

“Also recorded” adds a separate entry of the source.

T1 sequence (P05164 279-745 limits assumed): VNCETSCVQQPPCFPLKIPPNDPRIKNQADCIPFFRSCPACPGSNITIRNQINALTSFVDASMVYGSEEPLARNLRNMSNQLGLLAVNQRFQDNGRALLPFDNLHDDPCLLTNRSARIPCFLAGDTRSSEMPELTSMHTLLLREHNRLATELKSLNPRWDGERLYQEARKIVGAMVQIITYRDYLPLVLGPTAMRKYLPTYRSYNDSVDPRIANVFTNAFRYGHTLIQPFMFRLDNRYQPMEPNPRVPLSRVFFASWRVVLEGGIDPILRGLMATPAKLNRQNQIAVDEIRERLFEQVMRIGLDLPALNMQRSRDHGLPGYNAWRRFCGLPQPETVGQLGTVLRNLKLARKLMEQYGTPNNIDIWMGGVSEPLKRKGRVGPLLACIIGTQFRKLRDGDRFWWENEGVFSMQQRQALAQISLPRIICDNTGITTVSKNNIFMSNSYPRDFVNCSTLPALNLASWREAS
T1 sequence (P05164 165-273 limits assumed): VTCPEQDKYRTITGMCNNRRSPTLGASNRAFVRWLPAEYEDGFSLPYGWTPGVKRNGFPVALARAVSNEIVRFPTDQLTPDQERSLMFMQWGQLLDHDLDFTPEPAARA

As for `OC[C@H]1O[C@H](O[C@H]2[C@H](O)[C@@H](O)C(O)O[C@@H]2CO)[C@H](O)[C@@H](O)[C@@H]1O` (mixture of isomers) [Maltose, maltose, reference compound], the “adhesion of neutrophils to E-selectin transfected L-cells” value in experiment [1] is on record as “did not affect the adhesion of neutrophils”.
For `O=c1[nH]c(=S)ccn1[C@@H]1O[C@H](CO)[C@@H](O)[C@H]1O` [4-thiouridine], the myeloperoxidase activity result in experiment [2] was “do not affect myeloperoxidase activity”. For the same compound, in experiment [1], the “adhesion of neutrophils to E-selectin transfected L-cells” value is “could block adhesion of neutrophils” and the “order of potency of lead compounds” value is 4-thiouridine>isomaltitol>uridine. Also, in experiment [3], the “adhesion of neutrophils to TNF stimulated / activated HUVEC (in words)” value is “dose dependent inhibition” and the “inhibition of adhesion of neutrophils to TNF stimulated HUVEC” value is recorded as 60%. In addition, the “concentration level at which the maximal effect on neutrophil adhesion to HUVEC occurs” value in experiment [3] (TNF stimulated HUVEC) is recorded as “micromolar levels”. Further, the “TNF induced up-regulation of E-selectin” value in experiment [4] was “did not affect TNF induced up-regulation of E-selectin”.
For the compound `O=C(O)CN(CCOCCOCCN(CC(=O)O)CC(=O)O)CC(=O)O` [EGTA, reference compound], the “adhesion of neutrophils to E-selectin transfected L-cells” value in experiment [1] is reported as “consistently blocks adhesion of neutrophils; also recorded: dose dependent inhibition of neutrophils adhesion to L-cells”. Besides, the “adhesion of Colo 201 cells” value in experiment [5] is “blocked adhesion of Colo 201 cells”. For the same compound, the “adhesion of neutrophils to TNF stimulated / activated HUVEC (in words)” value in experiment [3] is “blocked adhesion of neutrophils; also recorded: dose dependent inhibition of neutrophils adhesion to activated HUVEC”.
Consider `C[C@H](O)[C@@H](O)[C@@H](O)[C@H](O)C=O` [fucose, reference compound], for which the “adhesion of neutrophils to E-selectin transfected L-cells” value in experiment [1] is “did not affect the adhesion of neutrophils”.
For `OC[C@H](O)[C@@H](O)[C@H](O)[C@H](O)CO[C@H]1O[C@H](CO)[C@@H](O)[C@H](O)[C@H]1O` [isomaltitol], the myeloperoxidase activity result in experiment [2] is on record as “do not affect myeloperoxidase activity”. In experiment [1], the “adhesion of neutrophils to E-selectin transfected L-cells” value is “could block adhesion of neutrophils” and the “order of potency of lead compounds” value is listed as 4-thiouridine>isomaltitol>uridine. Besides, the “inhibition of adhesion of neutrophils to TNF stimulated HUVEC” value in experiment [3] was “roughly 30%”.
In the case of `Cc1cn([C@H]2C[C@H](O)[C@@H](CO)O2)c(=O)[nH]c1=O` [thymidine, reference compound], the “adhesion of neutrophils to E-selectin transfected L-cells” value in experiment [1] is on record as “did not affect the adhesion of neutrophils”.
For `O=c1ccn([C@@H]2O[C@H](CO)[C@@H](O)[C@H]2O)c(=O)[nH]1` [uridine], the myeloperoxidase activity entry in experiment [2] is “do not affect myeloperoxidase activity”. In experiment [1], the “adhesion of neutrophils to E-selectin transfected L-cells” value was “could block adhesion of neutrophils” and the “order of potency of lead compounds” value is reported as 4-thiouridine>isomaltitol>uridine.
